Our source for the IC50 and efflux ratio values is patent publication US20240262826A1, “WILD TYPE KIT INHIBITORS” (Blueprint Medicines Corporation, priority 2022, published 2024).

The target in one data set is wild type c-kit (Homo sapiens (Human), UniProt P10721). Description: PathScan phospho c-kit (Tyr719) sandwich ELISA in SCF-stimulated M-07e cells (pKIT assay). It counts as cell-based. The conditions noted are these: ELISA assay (values not marked *). In outline:
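Tyr719-phosphorylated c-kit was measured by colorimetric (TMB) sandwich ELISA in lysates of M-07e cells. Cells were starved 4 h without serum or GM-CSF, dosed 60 min at 37 °C with compound (8 points, duplicate, 0.25% DMSO), and stimulated 10 min with human SCF (500 ng/mL as added). IC50 values came from 4-parameter logistic regression.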
A general note: ELISA stands for enzyme-linked immunosorbent assay.

Data set [1] deals with human P-glycoprotein (P-gp, MDR1) (Homo sapiens (Human), UniProt P08183). The data set can be described thus: MDCK-MDR1 cell monolayer drug transport assay (P-gp efflux ratio). It counts as in vitro ADME. The conditions noted are these: pH 7.4, MDCK-MDR1 cells, 1 uM concentration of compound, read-out: Pgp Efflux Ratio, 1 uM. The essentials: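 P-gp substrate potential tested in MDCK-MDR1 monolayers on Transwell supports, cultured 4-8 days; monolayers with TEER <42 ohms·cm2 discarded. Transport run in HBSS (10 mM HEPES, pH 7.4) at 37° C with compound working solution at 1 μM.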
human P-glycoprotein (P-gp, MDR1), sequence (P08183 whole entry): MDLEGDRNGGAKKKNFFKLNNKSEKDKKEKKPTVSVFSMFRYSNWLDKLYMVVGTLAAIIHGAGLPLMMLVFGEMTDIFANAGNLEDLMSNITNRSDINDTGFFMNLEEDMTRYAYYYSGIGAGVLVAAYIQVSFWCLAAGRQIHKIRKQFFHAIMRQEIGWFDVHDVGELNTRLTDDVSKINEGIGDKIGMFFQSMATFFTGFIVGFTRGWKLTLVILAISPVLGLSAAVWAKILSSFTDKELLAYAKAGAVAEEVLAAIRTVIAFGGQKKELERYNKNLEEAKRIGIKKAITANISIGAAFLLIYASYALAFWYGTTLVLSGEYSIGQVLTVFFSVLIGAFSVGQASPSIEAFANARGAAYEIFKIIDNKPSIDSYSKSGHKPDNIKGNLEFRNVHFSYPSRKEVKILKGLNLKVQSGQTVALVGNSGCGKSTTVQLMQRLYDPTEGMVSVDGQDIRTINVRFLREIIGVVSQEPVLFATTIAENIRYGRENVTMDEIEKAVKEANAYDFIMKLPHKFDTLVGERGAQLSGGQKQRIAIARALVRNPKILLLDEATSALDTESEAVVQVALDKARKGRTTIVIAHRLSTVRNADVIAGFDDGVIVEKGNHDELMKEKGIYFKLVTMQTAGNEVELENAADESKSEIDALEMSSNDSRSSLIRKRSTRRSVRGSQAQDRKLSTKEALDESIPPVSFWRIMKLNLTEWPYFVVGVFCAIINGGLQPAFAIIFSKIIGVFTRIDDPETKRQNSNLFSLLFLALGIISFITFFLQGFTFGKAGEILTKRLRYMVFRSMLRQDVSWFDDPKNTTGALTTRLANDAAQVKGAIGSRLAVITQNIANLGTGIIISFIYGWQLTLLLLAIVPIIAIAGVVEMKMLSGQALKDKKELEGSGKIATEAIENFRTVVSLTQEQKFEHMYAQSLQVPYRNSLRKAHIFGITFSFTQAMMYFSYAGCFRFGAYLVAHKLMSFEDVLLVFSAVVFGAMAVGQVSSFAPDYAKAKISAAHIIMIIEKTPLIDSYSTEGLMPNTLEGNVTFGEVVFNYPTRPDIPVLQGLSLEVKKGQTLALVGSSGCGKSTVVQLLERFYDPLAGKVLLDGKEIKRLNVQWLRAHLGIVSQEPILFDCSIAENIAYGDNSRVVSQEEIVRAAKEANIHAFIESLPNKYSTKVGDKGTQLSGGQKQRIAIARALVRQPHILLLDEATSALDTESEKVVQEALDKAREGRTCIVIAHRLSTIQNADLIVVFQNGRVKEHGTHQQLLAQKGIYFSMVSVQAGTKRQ

Each structure is given as a SMILES string.

wild type c-kit, sequence (P10721 26-976): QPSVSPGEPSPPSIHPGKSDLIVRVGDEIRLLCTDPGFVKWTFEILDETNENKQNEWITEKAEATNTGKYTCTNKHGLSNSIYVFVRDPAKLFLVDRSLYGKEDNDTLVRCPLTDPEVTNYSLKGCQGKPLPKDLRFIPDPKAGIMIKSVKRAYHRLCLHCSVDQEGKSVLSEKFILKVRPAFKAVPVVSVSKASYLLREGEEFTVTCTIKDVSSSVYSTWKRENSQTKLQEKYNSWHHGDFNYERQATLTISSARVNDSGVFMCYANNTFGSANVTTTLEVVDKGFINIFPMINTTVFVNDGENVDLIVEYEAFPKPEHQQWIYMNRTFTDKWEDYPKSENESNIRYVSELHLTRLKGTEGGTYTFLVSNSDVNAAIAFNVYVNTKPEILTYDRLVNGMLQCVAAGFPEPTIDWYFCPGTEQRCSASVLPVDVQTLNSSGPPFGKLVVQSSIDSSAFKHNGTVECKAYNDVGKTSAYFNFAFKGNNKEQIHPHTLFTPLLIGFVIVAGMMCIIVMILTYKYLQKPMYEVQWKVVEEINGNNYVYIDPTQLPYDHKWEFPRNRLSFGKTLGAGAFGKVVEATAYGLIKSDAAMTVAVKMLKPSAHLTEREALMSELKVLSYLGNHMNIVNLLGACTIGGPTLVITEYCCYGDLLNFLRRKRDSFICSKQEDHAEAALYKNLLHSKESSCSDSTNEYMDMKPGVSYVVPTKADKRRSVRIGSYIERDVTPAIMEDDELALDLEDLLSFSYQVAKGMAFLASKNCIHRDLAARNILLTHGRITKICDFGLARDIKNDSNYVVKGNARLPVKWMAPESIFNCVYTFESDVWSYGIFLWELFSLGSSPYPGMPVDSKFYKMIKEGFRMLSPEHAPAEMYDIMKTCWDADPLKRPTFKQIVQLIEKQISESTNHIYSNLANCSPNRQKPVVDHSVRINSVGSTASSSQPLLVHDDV

`COCCNc1ccn2ncc(C(=O)Nc3cc(-c4nnn([C@H]5C[C@H](CO)C5)n4)c(F)cc3C)c2c1` [Example 202, N-(4-fluoro-5-(2-((1r,3r)-3-(hydroxymethyl)cyclobutyl)-2H-tetrazol-5-yl)-2-methylphenyl)-5-((2-methoxyethyl)amino)pyrazolo[1,5-a]pyridine-3-carboxamide] came in with an IC50 against wild type c-kit of 14.8 nM. For the same molecule, the efflux ratio at 2 h, 1 µM in data set [1] is 19.1.

At wild type c-kit, `COC(=O)N1CC(n2nnc(-c3ccc(C)c(NC(=O)c4cnn5ccc(COCC(F)F)cc45)c3)n2)C1` [Example 162, methyl 3-(5-(3-(5-((2,2-difluoroethoxy)methyl)pyrazolo[1,5-a]pyridine-3-carboxamido)-4-methylphenyl)-2H-tetrazol-2-yl)azetidine-1-carboxylate] returned an IC50 of 18 nM. In data set [1], the efflux ratio at 2 h, 1 µM was found to be 5.3.

As for `CCS(=O)(=O)N1CC(n2nnc(-c3ccc(C)c(NC(=O)c4cnn5ccccc45)c3)n2)C1` [Example 173, N-(5-(2-(1-(ethylsulfonyl)azetidin-3-yl)-2H-tetrazol-5-yl)-2-methylphenyl)pyrazolo[1,5-a]pyridine-3-carboxamide], at wild type c-kit, the IC50 is 12 nM. In addition, the efflux ratio at 2 h, 1 µM in data set [1] is 3.5.

The molecule `Cc1ccc(-c2nnn(C)n2)cc1NC(=O)c1cnn2ccc(-c3cnn(C[C@H](C)O)c3)cc12` (single isomer, unassigned) [Example 54, (S)-5-(1-(2-hydroxypropyl)-1H-pyrazol-4-yl)-N-(2-methyl-5-(2-methyl-2H-tetrazol-5-yl)phenyl)pyrazolo[1,5-a]pyridine-3-carboxamide or (R)-5-(1-(2-hydroxypropyl)-1H-pyrazol-4-yl)-N-(2-methyl-5-(2-methyl-2H-tetrazol-5-yl)phenyl)pyrazolo[1,5-a]pyridine-3-carboxamide] registered an IC50 against wild type c-kit of 1.4 nM. The efflux ratio at 2 h, 1 µM in data set [1] stood at 8.4.

On wild type c-kit, `COCCNc1cc2c(C(=O)Nc3cc(-c4nnn(C5CN(C(=O)OC)C5)n4)ccc3C)cnn2cc1Cl` [Example 145, methyl 3-(5-(3-(6-chloro-5-((2-methoxyethyl)amino)pyrazolo[1,5-a]pyridine-3-carboxamido)-4-methylphenyl)-2H-tetrazol-2-yl)azetidine-1-carboxylate] displayed an IC50 of 157 nM. Moreover, in data set [1], the efflux ratio at 2 h, 1 µM amounted to 6.4.

`COCCNc1ccn2ncc(C(=O)Nc3cc(-c4nnn(C5CC(F)C5)n4)ccc3C)c2c1` (stereo not shown) [Example 151, N-(5-(2-(3-fluorocyclobutyl)-2H-tetrazol-5-yl)-2-methylphenyl)-5-((2-methoxyethyl)amino)pyrazolo[1,5-a]pyridine-3-carboxamide]: the midpoint of inhibition on wild type c-kit, the IC50, lay at 4.1 nM. Further, the efflux ratio at 2 h, 1 µM in data set [1] amounted to 4.8.

For `Cc1cc(F)c(-c2nnn(C3CC3)n2)cc1NC(=O)c1cnn2ccc(-c3cnn(CC(C)(C)O)c3)cc12` [Example 207, N-(5-(2-cyclopropyl-2H-tetrazol-5-yl)-4-fluoro-2-methylphenyl)-5-(1-(2-hydroxy-2-methylpropyl)-1H-pyrazol-4-yl)pyrazolo[1,5-a]pyridine-3-carboxamide], on wild type c-kit, the IC50 is 1.4 nM. For the same molecule, in data set [1], the efflux ratio at 2 h, 1 µM was 16.2.

On wild type c-kit, `COCCNc1ccn2ncc(C(=O)Nc3cc(-n4nnc(C5CN(C(=O)OC)C5)n4)ccc3Cl)c2c1` [Example 113, methyl 3-(2-(4-chloro-3-(5-((2-methoxyethyl)amino)pyrazolo[1,5-a]pyridine-3-carboxamido)phenyl)-2H-tetrazol-5-yl)azetidine-1-carboxylate] displayed an IC50 of 6.4 nM. For the same molecule, the efflux ratio at 2 h, 1 µM in data set [1] was found to be 3.4.

Take `COC[C@@H](O)Cn1cc(-c2ccn3ncc(C(=O)Nc4cc(-c5nnn(C6CC6)n5)c(F)cc4C)c3c2)c(C2CC2)n1` [Example 257, (S)-5-(3-cyclopropyl-1-(2-hydroxy-3-methoxypropyl)-1H-pyrazol-4-yl)-N-(5-(2-cyclopropyl-2H-tetrazol-5-yl)-4-fluoro-2-methylphenyl)pyrazolo[1,5-a]pyridine-3-carboxamide]: the IC50 on wild type c-kit was 0.7 nM. For the same molecule, the efflux ratio at 2 h, 1 µM in data set [1] was found to be 8.9.

The molecule `COC[C@@H](O)Cn1cc(-c2ccn3ncc(C(=O)Nc4cc(-c5nnn(C6CC6)n5)ccc4C)c3c2)c(C2CC2)n1` [Example 243, (S)-5-(3-cyclopropyl-1-(2-hydroxy-3-methoxypropyl)-1H-pyrazol-4-yl)-N-(5-(2-cyclopropyl-2H-tetrazol-5-yl)-2-methylphenyl)pyrazolo[1,5-a]pyridine-3-carboxamide] had an IC50 on wild type c-kit of 0.1 nM. Besides, the efflux ratio at 2 h, 1 µM in data set [1] was 13.5.

Molecule `Cc1nn(CC2(O)CCOCC2)cc1-c1ccn2ncc(C(=O)Nc3cc(-n4nnc([C@H]5C[C@@H]5F)n4)ccc3Cl)c2c1` (single isomer, unassigned) [Example 272, N-(2-chloro-5-(5-((1R,2S)-2-fluorocyclopropyl)-2H-tetrazol-2-yl)phenyl)-5-(1-((4-hydroxytetrahydro-2H-pyran-4-yl)methyl)-3-methyl-1H-pyrazol-4-yl)pyrazolo[1,5-a]pyridine-3-carboxamide or N-(2-chloro-5-(5-((1S,2R)-2-fluorocyclopropyl)-2H-tetrazol-2-yl)phenyl)-5-(1-((4-hydroxytetrahydro-2H-pyran-4-yl)methyl)-3-methyl-1H-pyrazol-4-yl)pyrazolo[1,5-a]pyridine-3-carboxamide] returned a 50% inhibitory concentration (IC50) at wild type c-kit of 0.9 nM. Further, the efflux ratio at 2 h, 1 µM in data set [1] turned out to be 7.

Consider `COCCNc1ccn2ncc(C(=O)Nc3cc(-n4ncc(C5CN(C(=O)OC)C5)n4)ccc3C)c2c1` [Example 110, methyl 3-(2-(3-(5-((2-methoxyethyl)amino)pyrazolo[1,5-a]pyridine-3-carboxamido)-4-methylphenyl)-2H-1,2,3-triazol-4-yl)azetidine-1-carboxylate], for which, at wild type c-kit, the IC50 is 17.7 nM. Further, the efflux ratio at 2 h, 1 µM in data set [1] was determined as 8.7.

Turning to `Cc1nnn(-c2ccc(C)c(NC(=O)c3cnn4ccc(-c5cnn(CCO)c5)cc34)c2)n1` [Example 51, 5-(1-(2-hydroxyethyl)-1H-pyrazol-4-yl)-N-(2-methyl-5-(5-methyl-2H-tetrazol-2-yl)phenyl)pyrazolo[1,5-a]pyridine-3-carboxamide], on wild type c-kit, the IC50 was 27.4 nM. The efflux ratio at 2 h, 1 µM in data set [1] worked out at 5.5.

On to `COCCNc1ccn2ncc(C(=O)Nc3cc(-c4nnn([C@H]5C[C@@H](C(F)(F)F)C5)n4)c(F)cc3C)c2c1` [Example 108, N-(4-fluoro-2-methyl-5-(2-((1s,3s)-3-(trifluoromethyl)cyclobutyl)-2H-tetrazol-5-yl)phenyl)-5-((2-methoxyethyl)amino)pyrazolo[1,5-a]pyridine-3-carboxamide], for which half-maximal inhibition at wild type c-kit (IC50) required 11.6 nM. Also, in data set [1], the efflux ratio at 2 h, 1 µM worked out at 4.

For `COC[C@@H]1CCN1c1ccn2ncc(C(=O)Nc3cc(-c4nnn(C5CN(C(=O)OC)C5)n4)ccc3C)c2c1` (stereo in doubt) [Example 85, methyl (S)-3-(5-(3-(5-(2-(methoxymethyl)azetidin-1-yl)pyrazolo[1,5-a]pyridine-3-carboxamido)-4-methylphenyl)-2H-tetrazol-2-yl)azetidine-1-carboxylate or methyl (R)-3-(5-(3-(5-(2-(methoxymethyl)azetidin-1-yl)pyrazolo[1,5-a]pyridine-3-carboxamido)-4-methylphenyl)-2H-tetrazol-2-yl)azetidine-1-carboxylate], the IC50 on wild type c-kit was found to be 25 nM. Also, in data set [1], the efflux ratio at 2 h, 1 µM amounted to 7.1.

`C[C@](O)(CO)Cn1cc(-c2ccn3ncc(C(=O)Nc4cc(-c5nnn(C6CC6)n5)ccc4Cl)c3c2)cn1` [Example 266, (R)-N-(2-chloro-5-(2-cyclopropyl-2H-tetrazol-5-yl)phenyl)-5-(1-(2,3-dihydroxy-2-methylpropyl)-1H-pyrazol-4-yl)pyrazolo[1,5-a]pyridine-3-carboxamide] had an IC50 against wild type c-kit of 0.3 nM. In addition, the efflux ratio at 2 h, 1 µM in data set [1] was determined as 3.4.

`Cc1cnn(-c2ccc(C)c(NC(=O)c3cnn4ccc(-c5cnn(C[C@@H]6CNCCO6)c5)cc34)c2)n1` [Example 204, (S)—N-(2-methyl-5-(4-methyl-2H-1,2,3-triazol-2-yl)phenyl)-5-(1-(morpholin-2-ylmethyl)-1H-pyrazol-4-yl)pyrazolo[1,5-a]pyridine-3-carboxamide] registered an IC50 against wild type c-kit of 10.1 nM. In data set [1], the efflux ratio at 2 h, 1 µM is 62.1.

The molecule `COC(=O)N1CC(n2nnc(-c3ccc(C)c(NC(=O)c4cnn5ccc(NC[C@H](C)O)cc45)c3)n2)C1` [Example 94, methyl (S)-3-(5-(3-(5-((2-hydroxypropyl)amino)pyrazolo[1,5-a]pyridine-3-carboxamido)-4-methylphenyl)-2H-tetrazol-2-yl)azetidine-1-carboxylate] yielded an IC50 against wild type c-kit of 131 nM. In data set [1], the efflux ratio at 2 h, 1 µM came to 22.3.

Turning to `Cc1ccc(-c2nnn([C@H]3C[C@@H](C(F)(F)F)C3)n2)cc1NC(=O)c1cnn2ccc(N3CC(C)(O)C3)cc12` [Example 107, 5-(3-hydroxy-3-methylazetidin-1-yl)-N-(2-methyl-5-(2-((1s,3s)-3-(trifluoromethyl)cyclobutyl)-2H-tetrazol-5-yl)phenyl)pyrazolo[1,5-a]pyridine-3-carboxamide], inhibition against wild type c-kit was half-maximal at 5.5 nM (IC50). Further, the efflux ratio at 2 h, 1 µM in data set [1] is 28.9.

Take `COC(=O)N1CC(n2nnc(-c3ccc(C)c(NC(=O)c4cnn5ccc(N6CC[C@@H](N(C)C)C6)cc45)c3)n2)C1` [Example 97, methyl (R)-3-(5-(3-(5-(3-(dimethylamino)pyrrolidin-1-yl)pyrazolo[1,5-a]pyridine-3-carboxamido)-4-methylphenyl)-2H-tetrazol-2-yl)azetidine-1-carboxylate]: on wild type c-kit, the IC50 came out at 112 nM. For the same molecule, the efflux ratio at 2 h, 1 µM in data set [1] was determined as 23.2.

As a reminder, the IC50 is the concentration that gives 50% inhibition. A higher IC50 goes with lower potency.
